Data taken from EP1550446A1, “Use of 1-(5-isoquinolinesulfonyl) homopiperazine for treating and preventing hypopigmentary disorders” (priority 2003, dated 2005).

Key:
[1] = tested on: human melanoma cell line (Mel-Ho); assay: Melanocyte dendrite outgrowth assay; format: cell-based; settings: Mel-Ho cells; for dendrite formation (dendricity): 100 µM, treated for 24 hours, digital photography (Figure 1)
Source text: A possibility to test the effect of a compound on melanocyte function as a measure for pigmentation, the melanocyte dendrite outgrowth assay can be performed. Vitiligo melanocytes for example have only stubby dendrites. Increasing dendricity as a prerequisite for the transfer of the melanosomes from melanocytes to the surrounding keratinocytes rescues this defect. For this assay, cells from a human melanoma cell line (Mel-Ho) were obtained from DSMZ (Deutsche Sammlung für Mikroorganismen und Zellkulturen) and were cultured according to the protocol provided by DSMZ. In short, after thawing the melanocytes were cultured in T-75 flasks in melanocyte culture media (provided by the manufacturer) until they reach 70-80% confluency. The melanocytes were then trypsinized, transferred into 5-10 new T-75 flasks, and grown again to same confluency as described above. After this expansion step the melanocytes were immediately used for the Melanocyte Dendrite Outgrowth Assay or were frozen for later use. […] Forskolin is known to cause increased melanocyte dendricity and was used as a positive control. […] Melanocyte dendrite outgrowth was documented by digital photography (Canon G2 Powershot) after 3, 6 and 24 hours.

[2] = tested on: normal human epidermal keratinocytes (neonatal keratinocytes, NHEK)
Experimental: To test a possible cytotoxic effect resulting in a morphological change of keratinocytes, normal human epidermal keratinocytes were obtained from Clonetics (neonatal keratinocytes, NHEK) and were cultured according to the manufacturers' protocol. In short, after thawing, the keratinocytes were cultured in T-75 flasks in keratinocyte culture media (provided by the manufacturer) until they reached 70-80% confluency. The keratinocytes were then trypsinized, transferred into new T-75 flasks at a density of 3500 cells/cm^2. After this expansion step the keratinocytes were immediately used for the cytotoxic assay procedure or were frozen for later use. […] Cells treated with media only were used as a negative control. Photos were taken at 3, 6 and 24 hours after stimulation for documentary reasons.

[3] = tested on: HaCaT keratinocytes

SMILES	dendrite formation (dendricity) [1]	dendrite formation ([1]; concentrations lower than 100 µM)	morphological changes as a measure for cytotoxicity [2]	morphological changes as a measure for cytotoxicity [3]
Cl.Cl.O=S(=O)(c1cccc2cnccc12)N1CCCNCC1 [1-(5-isoquinolinesulfonyl)homopiperazine dihydrochloride]	dendricity was strongly stimulated	sufficient to induce dendrite formation	No morphological changes	No morphological changes
O=S(=O)(c1cccc2cnccc12)N1CCCNCC1 [1-(5-isoquinolinesulfonyl)homopiperazine]	strong dendrite formation	–	normal morphology	normal morphology
